Entries after “also recorded” stand apart in the source; their conditions may differ.
Experiments:
[1] = system: B16-F10 mouse melanoma isografts; experiment: B16-F10 mouse melanoma isograft model, combination with TMZ; format: in vivo
Description: (§1) All studies were performed according to IACUC approved protocols. The general health of mice was monitored daily.
TMZ combination in B16-F10 isograft model: female C57BL/6 mice were inoculated subcutaneously with B16-F10 cells (2 × 10^5). Following randomization by body weight, drug treatment was initiated 1 day post-inoculation. […] TMZ was administered daily on days 1 to 5 at 50 mg/kg as a single agent or in combination. […] The control group was treated with vehicle (0.5% methyl cellulose in water). E7449 or vehicle was administered first and when dosing of all animals was complete TMZ was administered to animals receiving the combination.

PARP1 = target: T1, PARP1 (Gallus gallus, UniProt P26446); experiment: PARP trapping: western blot of chromatin-bound fraction of MMS-damaged DT40 cells; format: cell-based, avian; conditions: 0.05% MMS, inhibitor 0.1–10 μmol/L, 30 min
T1 construct: endogenous in cells; host or cells: DT40 cells
T1 sequence (P26446 whole entry): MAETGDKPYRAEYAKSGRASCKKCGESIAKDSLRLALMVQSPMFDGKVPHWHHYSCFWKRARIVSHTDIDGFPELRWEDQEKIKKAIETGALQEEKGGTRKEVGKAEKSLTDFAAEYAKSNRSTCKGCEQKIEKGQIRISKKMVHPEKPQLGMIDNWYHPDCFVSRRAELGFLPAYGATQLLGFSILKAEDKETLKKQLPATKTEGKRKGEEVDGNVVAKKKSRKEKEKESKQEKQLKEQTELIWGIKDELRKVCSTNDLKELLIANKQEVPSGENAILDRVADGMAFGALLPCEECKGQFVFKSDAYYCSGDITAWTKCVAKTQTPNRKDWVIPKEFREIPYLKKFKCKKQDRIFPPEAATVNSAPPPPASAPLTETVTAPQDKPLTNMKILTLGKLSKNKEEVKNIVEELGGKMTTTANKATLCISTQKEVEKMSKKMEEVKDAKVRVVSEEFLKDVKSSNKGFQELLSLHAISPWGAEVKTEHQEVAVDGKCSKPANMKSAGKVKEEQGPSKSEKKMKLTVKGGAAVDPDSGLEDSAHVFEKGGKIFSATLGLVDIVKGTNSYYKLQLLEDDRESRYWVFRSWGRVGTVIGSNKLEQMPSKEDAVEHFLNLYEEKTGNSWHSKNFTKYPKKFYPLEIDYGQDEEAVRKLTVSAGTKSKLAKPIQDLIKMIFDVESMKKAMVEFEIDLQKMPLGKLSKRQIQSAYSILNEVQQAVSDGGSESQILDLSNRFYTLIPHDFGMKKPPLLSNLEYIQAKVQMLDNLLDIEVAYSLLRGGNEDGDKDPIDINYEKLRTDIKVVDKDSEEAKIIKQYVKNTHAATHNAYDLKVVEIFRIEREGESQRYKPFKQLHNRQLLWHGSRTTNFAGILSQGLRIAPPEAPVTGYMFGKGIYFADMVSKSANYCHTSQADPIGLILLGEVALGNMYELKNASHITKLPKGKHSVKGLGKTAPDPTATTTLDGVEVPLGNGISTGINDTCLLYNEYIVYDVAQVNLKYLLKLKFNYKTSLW
Description: Following binding of appropriate secondary antibodies labeled with IRDye® (LI-COR), image analysis and quantitation of blots was performed with Image Studio software for the LI-COR Odyssey system (version 2.1.10).

Wnt1 model tumors = experiment: Gene expression of Wnt-related genes in Wnt1 model tumors (mouse TLDA); format: in vivo; conditions: 7 days of drug treatment
Description: (§2) Gene expression profiling was performed using a custom designed TaqMan® low density array (TLDA). Total RNA was isolated from cell lines using RNeasy Mini Kit (Qiagen) and from xenograft tumor FFPE tissue using RecoverAll Total Nucleic Acid Isolation (Ambion). Human and mouse, real-time qPCR TLDAs (384-well micro fluidic card) were designed with genes selected based on their involvement in Wnt signalling (see supplementary Tables 2 and 3 for lists of genes on TLDAs). cDNA was generated from total RNA using High Capacity cDNA Reverse Transcription kit (Life Technologies) or SuperScript® VILO™ Master Mix (Life Technologies). 100 ng cDNA was combined with TaqMan® Gene Expression Master Mix (Life Technologies) for the cell lines and TaqMan® Advanced FAST Master Mix (Life Technologies) for the xenograft tissue for each port (in duplicate). TLDAs were run based on recommended cycling times for each master mix. Ct values were calculated and imported into GeneData Analyst for further analysis. To calculate the ΔCts, gene expression was normalized to several housekeeping genes. Relative fold change was calculated by comparison to the DMSO or vehicle-treated controls for each sample. A student's t-test was used to calculate P-values and hierarchical clustering used Manhattan distance and complete linkage plotting of selected significant genes to generate heat maps.

[2] = system: DNA repair mutant DT40 cell lines; experiment: Proliferation assay in panel of isogenic DNA repair mutant DT40 cell lines (XTT); format: cell-based, avian
[3] = small phase 1 study; cited from earlier work
[4] = system: PARP activity in NCI-H460 tumor tissue; experiment: Pharmacodynamic PARP inhibition (PAR ELISA) in NCI-H460 tumors; format: in vivo, mouse
Description: (§3) Control group (10 mice) were treated with vehicle (0.5% methyl cellulose in water). Mice were euthanized and tumors were harvested at 1, 6, 12, 24 and 36 hours post treatment (5 mice per treatment per time point). Individual tumors were removed and flash frozen in liquid nitrogen for PAR analysis. PARP inhibition was also evaluated in tumors from NCI-H460 human lung cancer subcutaneous xenografts. Control group animals (24 mice) were treated with vehicle (0.5% methyl cellulose). […] Mice were euthanized and tumors were harvested at 0.25, 1, 6, 12, 24 and 36 hours post-treatment. PAR levels were determined by ELISA using the procedure provided by Trevigen and comparing to a PAR standard curve. Protein concentration of tumor lysates was determined using the BCA assay (Thermo Scientific). Results were converted from pg PAR/assay well to ng PAR/mg protein. Data was pooled from multiple experiments. The percent of control for each time point was calculated by using an average of all control replicates from that experiment.

[5] = system: NCI-H460 human lung cancer xenografts; experiment: NCI-H460 lung cancer xenograft model, antitumor activity; format: in vivo, mouse
SW480 cells = experiment: Gene expression profiling of Wnt-related genes (TLDA qPCR) in SW480 cells; format: cell-based, human; conditions: 30 μmol/L, 72 h
Description: as §2

[6] = design: method as in PMID 22246237; conditions: cited from earlier work
[7] = system: MDA-MB-436 human breast cancer xenografts; experiment: MDA-MB-436 subcutaneous xenograft model, single agent; format: in vivo, mouse
Description: as §1

[8] = system: PARP activity in MDA-MB-436 tumor tissue; experiment: Pharmacodynamic PARP inhibition (PAR ELISA) in MDA-MB-436 tumor lysates; format: in vivo, mouse
Description: as §3

P-glycoprotein = system: P-glycoprotein; design: method as in PMID 22246237; conditions: cited from earlier work
[9] = system: MX-1 human breast cancer xenografts; format: in vivo
Description: All studies were performed according to IACUC approved protocols. The general health of mice was monitored daily. Tumor volume was determined by caliper measurements (mm), using the formula (l x w^2)/2 = mm^3, where l and w refer to the larger and smaller perpendicular dimensions collected at each measurement. Tumor dimensions were recorded twice per week starting when tumors reached an approximate size of 100 to 150 mm^3. Body weights were recorded twice per week and relative body weight was calculated as follows: Relative body weight = (body weight on day of measurement/body weight on first day of treatment).
Carboplatin combination in MX-1 orthotopic xenografts: female nude mice were implanted with MX-1 cells (0.5 × 10^6) in the thoracic mammary fat pad. Treatment started on day 3 when the average tumor size was approximately 50 mm^3. Carboplatin was administered as a single intravenous dose at 60 mg/kg on day 3 or 4.

[10] = Gastrointestinal toxicity in preclinical studies; format: in vivo
[11] = E7449 10, 30, 100 mg/kg + TMZ 50 mg/kg

SMILES: O=c1[nH]nc2c3c(cccc13)N=C(CN1Cc3ccccc3C1)N2 [E7449, 8-(isoindolin-2-ylmethyl)-2,9-dihydro-3H-pyridazino[3,4,5-de]quinazolin-3-one]
- growth of subcutaneous tumors, single agent ([1]; E7449 100 mg/kg or TMZ 50 mg/kg, oral once daily): moderately inhibited
- animal lethality, combination with TMZ [1, 11]: No animal lethality occurred
- body weight, combination with TMZ [1, 11]: body weight loss was observed in all 3 combination groups
- tumor growth inhibition, combination with TMZ ([1]; E7449 10, 30 and 100 mg/kg + TMZ 50 mg/kg, oral): significantly enhanced tumor growth inhibition
- PARP1 trapping onto chromatin (PARP1): binding of PARP1 to chromatin in a dose responsive manner
- expression of Wnt-related genes CAR2, FZD9, LEF1, VIL1 in tumors (Wnt1 model tumors): also altered in tumors from E7449-treated mice, albeit to a lesser extent
- sensitivity of cell lines deficient in NHEJ repair ([2]; KU70, PKCS, LIGIV deficient DT40): Resistance
- effect of loss of POLQ on sensitivity ([2]; POLQ deficient DT40): no effect
- sensitivity of DT40 cells lacking PARP expression ([2]; versus wild type DT40): significantly resistant
- dose-limiting toxicity [3]: fatigue
- tolerability in cancer patients [3]: generally well tolerated
- PARP inhibition in tumor at early time points ([4]; single dose 1 mg/kg (lowest), 0.25 and 1 hour): significant PARP inhibition
- duration of complete PARP inhibition ([4]; single dose 100 mg/kg): up to 12 hours
- time of rebound in PARP activity ([4]; single dose 100 mg/kg): 24 h
- time of at least partial recovery of PARP activity to basal levels ([4]; single dose 1 and 3 mg/kg): ≤ 6 h
- antitumor activity [5]: No antitumor activity
- number of Wnt-related genes with significantly altered expression (SW480 cells): 30 genes
- brain penetration [6]: brain penetrable
- oral bioavailability [6]: orally bioavailable
- tolerability ([7]; 30 or 100 mg/kg once daily for 28 days): well-tolerated without any significant body weight loss or deaths
- antitumor activity, single agent ([7]; 30 or 100 mg/kg oral once daily for 28 days): statistically significant antitumor activity
- time of partial rebound of PARP activity ([8]; single dose 30 mg/kg): ≤ 12 h
- duration of significant PARP inhibition in tumor ([8]; single dose 100 mg/kg): at least 12 hours
- time of recovery of PARP activity to basal levels ([8]; single dose 100 mg/kg): ≤ 24 h
- P-glycoprotein substrate (P-glycoprotein): not a substrate for P-glycoprotein
- tolerability of combination with carboplatin ([9]; E7449 100 mg/kg + carboplatin 60 mg/kg): well tolerated with no signs of toxicity or significant body weight loss
- antitumor activity, E7449 started 1 day post-carboplatin ([9]; E7449 100 mg/kg once daily + carboplatin 60 mg/kg i.v.): closely resembled that observed with carboplatin alone
- antitumor activity, E7449 simultaneously with or prior to carboplatin ([9]; E7449 100 mg/kg once daily + carboplatin 60 mg/kg i.v. single dose): enhanced the antitumor activity of carboplatin
- antitumor activity, single agent ([9]; E7449 100 mg/kg oral once daily, carboplatin single i.v. dose 60 mg/kg): inactive; also recorded: No antitumor activity
- gastrointestinal toxicity [10]: no gastrointestinal toxicity was observed

From article PMC4747407 (Oncotarget, 2015)
